Results on nine compounds are retold here after ChEMBL document CHEMBL1201862, “PubChem BioAssay data set” (2004).

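Protocol summary: plate cells (96-well), add compound at 5 concentrations, incubate 48 h, interpolate endpoints linearly. GI50 is the concentration that inhibits growth by half.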 The source made the active and inactive calls. Rule as the data show it: active = GI50 up to about 1.1 µM and inactive = higher. Where only a bound is given, the exact number is not on record here.

Among the test systems are UACC-62; HOP-92; SNB-19; OVCAR-8; SW-620; HT-29; K562; CAKI-1; SR; TK-10; RPMI-8226; NCI-H460; M19-MEL; HCT-116; UO-31; IGROV-1; HCC 2998.
Assay in all cases: NCI-60 cell line screen, 48 h

Turning to `c1ccc2c(c1)[Se]c1ccccc1[Se]2`, the GI50 in the test with UACC-62 is > 100 µM (inactive); with HOP-92, 25.8 µM (inactive); in the test on SNB-19 it was > 100 µM (inactive); with OVCAR-8 it was > 100 µM (inactive); in the test with SW-620, > 100 µM (inactive); with HT-29 it was > 100 µM (inactive). Besides, the GI50 in the test on K562 is > 100 µM (inactive); in the test on CAKI-1, 67.1 µM (inactive); in the test on SR, 85.3 µM (inactive); with TK-10, 78.5 µM (inactive); with RPMI-8226, > 100 µM (inactive); in the test with NCI-H460 it was 38.3 µM (inactive). The GI50 in the test on M19-MEL was > 100 µM (inactive); in the test with HCT-116, 28.1 µM (inactive); in the test on UO-31 it was 51.6 µM (inactive); in the test with IGROV-1, 47.6 µM (inactive).

For the compound `CC(C)c1cc2c(O)c(c1)Cc1cc(C(C)C)cc(c1O)Cc1cc(C(C)C)cc(c1O)Cc1cc(C(C)C)cc(c1O)C2`, the GI50 with UACC-62, in the test on HOP-92, in the test with SNB-19, in the test with OVCAR-8, in the test on SW-620 and in the test with HT-29 was > 100 µM (inactive) throughout. Also, the GI50 in the test on K562, in the test on CAKI-1, with SR, in the test with TK-10, in the test with RPMI-8226 and in the test on NCI-H460 was > 100 µM (inactive) each time. Besides, the GI50 in the test on M19-MEL, with HCT-116, in the test with UO-31 and in the test with IGROV-1 was > 100 µM (inactive) in each case.

For `Cc1cc2c(c(C(N)=O)c1C)-c1ccccc1C2=O`, the GI50 in the test with UACC-62, in the test with HOP-92, in the test with SNB-19, in the test with OVCAR-8, with SW-620 and in the test on HT-29 was > 100 µM (inactive) in each case. The GI50 in the test on K562, with TK-10, in the test on HCC 2998, in the test with RPMI-8226, in the test on NCI-H460 and in the test with M19-MEL was > 100 µM (inactive) throughout. The GI50 in the test with HCT-116, in the test on UO-31 and in the test on IGROV-1 was > 100 µM (inactive) each time.

`COc1cccc(SSc2cccc(OC)c2C(=O)O)c1C(=O)O`: the GI50 in the test on UACC-62, with HOP-92, in the test with OVCAR-8, in the test with SW-620, with HT-29 and with K562 was > 100 µM (inactive) in each case. Also, the GI50 with CAKI-1, in the test with SR, in the test with TK-10, in the test on RPMI-8226, in the test with NCI-H460 and in the test on M19-MEL was > 100 µM (inactive) each time. Moreover, the GI50 in the test on HCT-116, in the test on UO-31 and in the test on IGROV-1 was > 100 µM (inactive) throughout.

For `CCc1cc(CCC(=O)Nc2ccccc2[N+](=O)[O-])nc(S)n1`, the GI50 with UACC-62, in the test on HOP-92, in the test with SNB-19, with OVCAR-8, with SW-620 and in the test with HT-29 was > 100 µM (inactive) in each case. The GI50 with K562, with SR, with TK-10, with NCI-H460, with M19-MEL and with HCT-116 was > 100 µM (inactive) throughout. Also, the GI50 with UO-31 and in the test on IGROV-1 was > 100 µM (inactive) in each case.

For the compound `Cc1ccc(C(=O)/C=C/c2ccccc2O)c(C)c1`, the GI50 was > 100 µM (inactive) with UACC-62; > 100 µM (inactive) in the test with HOP-92; > 100 µM (inactive) in the test on SNB-19; > 100 µM (inactive) in the test on OVCAR-8; > 100 µM (inactive) with SW-620; 0.8 µM (active) with HT-29. Besides, the GI50 in the test on K562 was > 100 µM (inactive); with CAKI-1, > 100 µM (inactive); with TK-10, > 100 µM (inactive); in the test with HCC 2998 it was > 100 µM (inactive); in the test on RPMI-8226, 18.7 µM (inactive); in the test on NCI-H460, > 100 µM (inactive). The GI50 was 1.35 µM (inactive) in the test with M19-MEL, > 100 µM (inactive) in the test with HCT-116, > 100 µM (inactive) with UO-31 and > 100 µM (inactive) in the test with IGROV-1.

Turning to `COc1ccc(/C=C2/C(=O)N(C(=O)c3ccc(Cl)cc3)N=C2C)cc1OC`, the GI50 with UACC-62, in the test on HOP-92, in the test on SNB-19, in the test with OVCAR-8, with SW-620 and in the test on HT-29 was > 100 µM (inactive) each time. Also, the GI50 in the test with K562, in the test with CAKI-1, in the test with TK-10, in the test with HCC 2998, in the test with RPMI-8226 and in the test with NCI-H460 was > 100 µM (inactive) each time. The GI50 in the test on M19-MEL, in the test on HCT-116, in the test with UO-31 and in the test on IGROV-1 was > 100 µM (inactive) throughout.

As for `Cc1ccc(S(=O)(=O)OC2CC=CC2)cc1`, the GI50 with UACC-62, in the test with HOP-92, in the test on SNB-19, in the test on OVCAR-8, with SW-620 and with HT-29 was > 100 µM (inactive) in each case. Besides, the GI50 in the test on K562, in the test with CAKI-1, in the test with TK-10, with HCC 2998, with RPMI-8226 and in the test on NCI-H460 was > 100 µM (inactive) each time. Besides, the GI50 in the test with M19-MEL, with HCT-116, in the test with UO-31 and with IGROV-1 was > 100 µM (inactive) throughout.

As for `CCN(CC)CCN1C(=O)CC2[C@@H]3CCc4cc(OC)ccc4C3CC[C@]2(C)C1=O` (stereo partly specified), the GI50 in the test on UACC-62 is 19.3 µM (inactive); in the test on HOP-92, 24 µM (inactive); in the test with SNB-19, > 100 µM (inactive); in the test with HT-29, 18.4 µM (inactive); in the test on K562, 15.2 µM (inactive); with SR, > 10 µM (inactive). The GI50 with RPMI-8226 was 21.7 µM (inactive); in the test with NCI-H460 it was 37.6 µM (inactive); in the test on M19-MEL, 18.7 µM (inactive); in the test on HCT-116, > 10 µM (inactive); with UO-31 it was 17.4 µM (inactive); with IGROV-1, 75.2 µM (inactive).
